These results are taken from patent publication US20230357233A1, “HETEROARYL COMPOUNDS, PREPARATION METHODS AND USES THEREOF” (INVENTISBIO CO., LTD., priority 2020, published 2023).

The target in one test is Ba/F3_KRAS^G12D cells (Homo sapiens, UniProt P01116, G12D, cells depend on it). Put plainly: Ba/F3 KRAS^G12D cell proliferation assay (cell-titer Glo). The class given is cell-based. As to conditions: cell growth inhibition, treated with the compounds for 3 days, read-out: BaF3_KRAS^G12D IC50.
Sequence of Ba/F3_KRAS^G12D cells (P01116 whole entry G12D): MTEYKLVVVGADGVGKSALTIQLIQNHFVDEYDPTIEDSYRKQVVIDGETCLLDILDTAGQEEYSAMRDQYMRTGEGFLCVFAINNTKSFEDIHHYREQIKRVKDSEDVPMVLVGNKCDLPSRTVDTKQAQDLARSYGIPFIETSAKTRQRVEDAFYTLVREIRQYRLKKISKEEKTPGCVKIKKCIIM
Test [1] addresses recombinant human KRAS^G12D protein (Homo sapiens, UniProt P01116, G12D). The experiment in a line: Temperature-dependent Fluorescence (TdF) KRAS^G12D protein binding assay. As to conditions: 6 μM KRAS^G12D Protein, 10 μM compound, Sypro Orange; Kd calculated from fluorescent shift. Put shortly:
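Sypro Orange thermal-shift assay, heating from 30 to 95 °C with readings every 0.4 °C (ex 470/em 570 nm). Binding is gauged as ΔTm with versus without compound. Kd is calculated from the degree of the unfolding-temperature shift.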

Sequence of recombinant human KRAS^G12D protein (P01116 1-188 isoform P01116-2 G12D): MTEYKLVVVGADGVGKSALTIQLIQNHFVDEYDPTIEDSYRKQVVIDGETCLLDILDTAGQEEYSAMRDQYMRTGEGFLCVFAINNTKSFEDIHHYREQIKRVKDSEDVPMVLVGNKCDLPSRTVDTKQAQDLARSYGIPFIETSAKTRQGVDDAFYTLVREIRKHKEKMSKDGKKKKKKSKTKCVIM

One may read the Kd as the constant that tells how readily two partners part at equilibrium. As to `Cc1nc(-c2cc(O)cc3cccc(C(F)(F)F)c23)c(F)c2nc(OC[C@@]34CCCN3C[C@H](F)C4)nc(N3CC4CCC(C3)N4)c12` [Compound 106], the GI50 on Ba/F3_KRAS^G12D cells was less than 0.5 µM. For the same compound, the Kd in test [1] was not above 0.5 µM.
On the same counts, the results for `Fc1cc2c(N3C4CCC3CNC4)nc(OCC34CCCN3CCC4)nc2nc1-c1cccc2cccc(Cl)c12` [Compound 9] are more than 5 µM and more than 5 µM.
Take `CCc1cccc2c(F)c(O)cc(-c3nc(C)c4c(N5CC6CCC(C5)N6)nc(OC[C@@]56CCCN5C[C@H](F)C6)nc4c3F)c12` [Compound 124]: at Ba/F3_KRAS^G12D cells, the GI50 is less than 0.5 µM. Further, the dissociation constant Kd in test [1] is not above 0.5 µM.
For `Cc1nc(-c2cc(O)cc3cccc(Cl)c23)c(F)c2nc(OC[C@@]34CCCN3C[C@H](F)C4)nc(N3CC4CCC(C3)N4C)c12` [Compound 90], the GI50 at Ba/F3_KRAS^G12D cells is 0.5 to 5 µM. The Kd in test [1] was 0.5 to 5 µM.
Regarding `Oc1cc(-c2nc3nc(OCC45CCCN4CCC5)nc(N4CC5CCC(C4)N5)c3cc2Cl)c2ccccc2c1` [Compound 10], at Ba/F3_KRAS^G12D cells, the GI50 was more than 5 µM. Also, the Kd in test [1] was more than 5 µM.
With `CN(C)CCOc1nc(N2CCNCC2)c2cc(F)c(-c3ccccc3F)nc2c1-c1cccnc1C1CC1` [Compound 24], the GI50 at Ba/F3_KRAS^G12D cells was in the range of 0.5 to 5 µM. Also, in test [1], the Kd was more than 5 µM.
For the compound `Fc1cc2c(N3CCNCC3)nc(OCC34CCCN3CCC4)nc2nc1-c1cccc2cccc(Cl)c12` [Compound 5], the GI50 at Ba/F3_KRAS^G12D cells is more than 5 µM. In addition, the Kd in test [1] is more than 5 µM.
Regarding `COc1cc(-c2cc3nc(OC[C@@H]4CCCN4C)nc(N4CC5CCC(C4)N5)c3nc2OC)c2ccccc2c1` [Compound 86], the GI50 on Ba/F3_KRAS^G12D cells fell in the range of 0.5 to 5 µM. The Kd in test [1] is more than 5 µM.
The matching figures for `Fc1c(-c2cccc3cccc(Cl)c23)ncc2c(OCC34CCCN3CCC4)cc(N3CCNCC3)nc12` [Compound 69]: 0.5 to 5 µM and more than 5 µM.
As for `Nc1cccc(F)c1-c1nc2nc(OCC34CCCN3CCC4)nc(N3CC4CCC(C3)N4)c2cc1Cl` [Compound 11], on Ba/F3_KRAS^G12D cells, the GI50 was more than 5 µM. Moreover, the dissociation constant (Kd) in test [1] was more than 5 µM.
In the case of `COc1nc2c(N3CC4CCC(C3)N4)nc(OC[C@@H]3CCCN3C)nc2cc1-c1cc(O)cc2ccccc12` [Compound 91], the GI50 at Ba/F3_KRAS^G12D cells was 0.5 to 5 µM. The Kd in test [1] is 0.5 to 5 µM.
`CN(C)CCCn1c(=O)nc(N2CC3CCC(C2)N3)c2cnc(-c3cccc4cccc(Cl)c34)c(F)c21` [Compound 17]: the GI50 at Ba/F3_KRAS^G12D cells is more than 5 µM. For the same compound, in test [1], the dissociation constant Kd was more than 5 µM.
Consider `CN1CCC[C@H]1Cn1c(=O)nc(N2CCNCC2)c2cc(F)c(-c3cccc4cccc(Cl)c34)nc21` [Compound 38], for which the GI50 at Ba/F3_KRAS^G12D cells is more than 5 µM. The Kd in test [1] is more than 5 µM.
In the case of `Nc1cccc(F)c1-c1ncc2c(N3CCNCC3)nc(OCC34CCCN3CCC4)cc2n1` [Compound 22], the GI50 on Ba/F3_KRAS^G12D cells is more than 5 µM. In addition, the Kd in test [1] is more than 5 µM.
Turning to `CN1CCC[C@@H]1COc1nc(-c2cccc3ccccc23)c(F)c2nc(N3CCNCC3)ccc12` [Compound 54], the GI50 on Ba/F3_KRAS^G12D cells lay within 0.5 to 5 µM. Further, the equilibrium dissociation constant (Kd) in test [1] was more than 5 µM.
Turning to `Clc1cccc2cccc(-c3ncc4c(N5C6CCC5CNC6)nc(OCC56CCCN5CCC6)cc4n3)c12` [Compound 52], the GI50 at Ba/F3_KRAS^G12D cells was in the range of 0.5 to 5 µM. For the same compound, the Kd in test [1] is more than 5 µM.
On to `O=c1c2nc(OCC34CCCN3CCC4)nc(N3CC4CCC(C3)N4)c2ccn1-c1cccc2ccccc12` [Compound 108], for which the GI50 on Ba/F3_KRAS^G12D cells was more than 5 µM. In test [1], the Kd is more than 5 µM.
In the case of `CN1CCC[C@H]1Cn1c(=O)nc(N2CCN[C@@H](CC#N)C2)c2cnc(-c3cc(O)cc4cccc(Cl)c34)c(F)c21` [Compound 64], on Ba/F3_KRAS^G12D cells, the GI50 was more than 5 µM. The Kd in test [1] is more than 5 µM.
Regarding `C#Cc1c(F)ccc2cc(O)cc(-c3nc(OC(C)C)c4c(N5CC6CCC(C5)N6)nc(OC[C@@]56CCCN5C[C@H](F)C6)nc4c3F)c12` [Compound 171], the GI50 on Ba/F3_KRAS^G12D cells is less than 0.5 µM. Besides, in test [1], the dissociation constant Kd was not above 0.5 µM.
For `CN(C)C1CN(c2nc(-c3cccc4cccc(Cl)c34)c(F)c3nc(N4CCNCC4)ccc23)C1` [Compound 50], at Ba/F3_KRAS^G12D cells, the GI50 was in the range of 0.5 to 5 µM. Besides, the Kd in test [1] was more than 5 µM.
For the compound `Fc1c(-c2cccc3cccc(Cl)c23)ncc2c(N3CC4CCC(C3)N4)nc(OC[C@@]34CCCN3C[C@H](F)C4)nc12` [Compound 30], the GI50 on Ba/F3_KRAS^G12D cells is less than 0.5 µM. For the same compound, the equilibrium dissociation constant (Kd) in test [1] was not above 0.5 µM.
As to `Oc1cc(-c2nc(OCC34CCCN3CCC4)c3ccc(N4CCNCC4)nc3c2F)c2c(Cl)cccc2c1` [Compound 57], the GI50 at Ba/F3_KRAS^G12D cells was more than 5 µM. Moreover, the Kd in test [1] was more than 5 µM.
Regarding `Cc1cccc2cc(O)cc(-c3ncc4c(N5CC6CCC(C5)N6)nc(OC[C@@]56CCCN5C[C@H](F)C6)c(Cl)c4n3)c12` [Compound 58], the GI50 on Ba/F3_KRAS^G12D cells is 0.5 to 5 µM. Besides, in test [1], the Kd is 0.5 to 5 µM.
Consider `CC1(O)CN2CCC[C@@]2(COc2nc(N3CC4CCC(C3)N4)c3cnc(-c4cc(O)cc5cccc(Cl)c45)c(F)c3n2)C1` (some centres unmarked) [Compound 96], for which the GI50 on Ba/F3_KRAS^G12D cells is more than 5 µM. In addition, in test [1], the Kd was not above 0.5 µM.
Take `CN(C)CCCn1c(=O)nc(N2CC3CCC(C2)N3)c2cc(F)c(-c3cccc4cccc(Cl)c34)nc21` [Compound 19]: the GI50 on Ba/F3_KRAS^G12D cells is more than 5 µM. Besides, the equilibrium dissociation constant (Kd) in test [1] is more than 5 µM.
With `CCc1cccc2cc(O)cc(-c3nc(C)c4c(N5CC6CCC(C5)N6)nc(OC[C@@]56CCCN5C[C@H](F)C6)nc4c3F)c12` [Compound 85], the GI50 on Ba/F3_KRAS^G12D cells was less than 0.5 µM. For the same compound, the dissociation constant Kd in test [1] is not above 0.5 µM.
In the case of `C#Cc1c(F)ccc2cc(O)cc(-c3nc(OCC)c4c(N5CC6CCC(C5)N6)nc(OC[C@@]56CCCN5C[C@H](F)C6)nc4c3F)c12` [Compound 141], the GI50 at Ba/F3_KRAS^G12D cells is less than 0.5 µM. In test [1], the Kd is not above 0.5 µM.
For `Oc1cc(-c2ncc3c(N4CC5CCC(C4)N5)cc(OCC45CCCN4CCC5)nc3c2F)c2c(Cl)cccc2c1` [Compound 71], on Ba/F3_KRAS^G12D cells, the GI50 is more than 5 µM. In addition, the equilibrium dissociation constant (Kd) in test [1] is 0.5 to 5 µM.
The matching figures for `N#Cc1cccc2cc(O)cc(-c3ncc4c(N5CC6CCC(C5)N6)nc(OCC56CCCN5CCC6)nc4c3F)c12` [Compound 47]: more than 5 µM and not above 0.5 µM.
Take `C#Cc1c(F)ccc2cc(O)cc(-c3nc(C(F)F)c4c(N5CC6CCC(C5)N6)nc(OC[C@@]56CCCN5C[C@H](F)C6)nc4c3F)c12` [Compound 165]: the GI50 at Ba/F3_KRAS^G12D cells was less than 0.5 µM. Also, the dissociation constant Kd in test [1] is not above 0.5 µM.
On to `CCN1CCC(c2nc(OCC34CCCN3CCC4)nc3c(F)c(-c4cc(O)cc5cccc(Cl)c45)ncc23)CC1` [Compound 56], for which, at Ba/F3_KRAS^G12D cells, the GI50 lay within 0.5 to 5 µM. Also, the Kd in test [1] was more than 5 µM.
On the same counts, the results for `Cc1cccc2cc(O)cc(-c3nc(C)c4c(N5CC6CCC(C5)N6)nc(OC[C@@]56CCCN5C[C@H](F)C6)nc4c3F)c12` [Compound 93] are less than 0.5 µM and not above 0.5 µM.
Take `Nc1cccc(F)c1-c1ncc2c(N3CC4CCC(C3)N4)nc(OCC34CCCN3CCC4)cc2n1` [Compound 26]: the GI50 on Ba/F3_KRAS^G12D cells is more than 5 µM. In addition, in test [1], the dissociation constant (Kd) was more than 5 µM.
`Clc1cc2c(N3CCNCC3)nc(OCC34CCCN3CCC4)nc2nc1-c1cccc2ccccc12` [Compound 3]: the GI50 at Ba/F3_KRAS^G12D cells was more than 5 µM. The dissociation constant (Kd) in test [1] was more than 5 µM.
